Source: ChEMBL document CHEMBL1148805 (J Med Chem, 2007)
Activity calls are given as the source filed them. The calls are words filed in the database; no cut-off is given here.

Columns and labels:
[1] = biological target: Aldo-keto reductase family 1 member B1 (Rattus norvegicus, UniProt P07943)
Description: Inhibition of ALR2 in Sprague-Dawley Albino rat lens

Brain [2] = assay: tissue or blood; details: Rattus norvegicus, Sprague-Dawley Albino
[3] = biological target: Aldo-keto reductase family 1 member A1 (Rattus norvegicus, UniProt P51635)
Description: Inhibition of ALR1 in Sprague-Dawley Albino rat kidney

Brain [4] = assay: tissue or blood; details: Rattus norvegicus, Sprague-Dawley Albino; remark: listed apart in the source
Brain [5] = details: Rattus norvegicus, Sprague-Dawley Albino, 10 uM

Aldo-keto reductase family 1 member A1, sequence (P51635 whole entry, looked up): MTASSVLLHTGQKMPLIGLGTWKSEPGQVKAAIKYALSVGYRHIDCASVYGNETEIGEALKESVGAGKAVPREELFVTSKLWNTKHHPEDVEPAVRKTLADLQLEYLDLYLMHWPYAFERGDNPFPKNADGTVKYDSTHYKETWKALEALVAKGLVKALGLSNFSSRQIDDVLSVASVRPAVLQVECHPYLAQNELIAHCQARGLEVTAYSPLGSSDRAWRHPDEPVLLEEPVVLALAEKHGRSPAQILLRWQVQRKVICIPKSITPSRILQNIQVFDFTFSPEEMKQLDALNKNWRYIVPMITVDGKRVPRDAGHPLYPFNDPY
Description for physchem: Acid dissociation constant, pKa of the compound

SMILES	IC50 [1] [µM]	inhibition at 100 µM (Brain [2]) [%]	IC50 [3] [µM]	pKa (physchem)	inhibition at 10 µM (Brain [4]) [%]	Activity (Brain [5])
O=c1cc(-c2ccc(O)c(O)c2)nc2ccccn12	0.67	71.6	> 10	6.8	26.6	
Cc1c(C)c2c(c(C)c1O)CC[C@@](C)(CCCC(C)CCCC(C)CCCC(C)C)O2 (single isomer, unassigned) [ALPHA-TOCOPHEROL]		18.2				
COc1ccc(-c2cc(=O)n3ccccc3n2)cc1	> 10	15.1	> 10		8.3	
COc1ccc(Cc2cc(=O)n3c(O)cccc3n2)cc1	> 10	42.4	> 10		18.9	
O=c1cc(-c2ccc(O)c(O)c2)nc2cccc(O)n12	0.1	85.9	> 10		66.5	
O=c1cc(Cc2ccccc2)nc2cccc(O)n12	55	45.7	> 10		19.3	
COc1ccc(-c2cc(=O)n3c(O)cccc3n2)cc1OC	100	64.7	> 10		28.5	
O=c1cc(-c2ccc(O)cc2)nc2cccc(O)n12	0.42	42.4	> 10		21.2	
O=c1cc(-c2ccccc2)nc2ccccn12	> 10	22.4	> 10		10.8	
O=c1cc(-c2ccc(O)c(O)c2)nc2c(O)cccn12	0.45	81.5	> 10		48.2	
O=c1cc(-c2ccc(O)cc2)nc2c(O)cccn12	2.07	43.2	> 10		11.8	
CC(=O)N(O)CCCCCNC(=O)CCC(=O)N(O)CCCCCNC(=O)CCC(=O)N(O)CCCCCN [DEFEROXAMINE]		72				
COc1ccc(-c2cc(=O)n3cccc(O)c3n2)cc1OC	> 10	8.8	> 10		1.2	
O=c1cc(-c2ccccc2)nc2c(O)cccn12	> 10	11.9	> 10	10.2	5.9	
O=c1cc(-c2ccc(O)cc2)nc2ccccn12	4.56	23.7	> 10	7.6		inactive
COc1ccc(-c2cc(=O)n3ccccc3n2)cc1OC	> 10	18.8	> 10			inactive
COc1ccc(-c2cc(=O)n3cccc(O)c3n2)cc1	> 10	11.5	> 10		3.4	
COc1ccc(Cc2cc(=O)n3c(O)cccc3n2)cc1OC	> 10	45.1	> 10		25.8	
O=c1cc(Cc2ccc(O)c(O)c2)nc2cccc(O)n12	12	89.9	> 10		56.7	
O=c1cc(Cc2ccc(O)cc2)nc2cccc(O)n12	44	51.4	> 10		11.5	
COc1ccc(-c2cc(=O)n3c(O)cccc3n2)cc1	0.74	82.8	> 10		50.4	
